Tests used:
[1] = test system: eIF4E-transfected NIH 3T3 cells; test: transformation assay, anchorage-dependent foci formation; type: cell-based; details: Mus musculus, NIH3T3, read-out: apparent EC50 suppression of eIF4E-mediated transformation
[2] = cited from earlier work
FaDu cells = test: Western blot of FaDu cells treated in culture; type: cell-based, human; details: 48 hours
Method: FaDu cells were grown in culture as described previously and treated with Ribavirin for 48 hours prior to preparation of protein extracts and western blot analysis.

FaDu tumors in nude mice = type: in vivo
Method: Female 5- to 7-week-old athymic NCr-nu/nu mice were obtained from Taconic Farms. Human FaDu cells, derived from a hypopharyngeal squamous cell carcinoma, were obtained from the American Type Culture Collection. Mice were inoculated s.c. into the right flank with 0.5×10^6 cells in 50 μl PBS, and were randomly segregated into two groups of 10 mice each. After 1 week of engraftment, treatment was administered orally each day at a dose of 40 μg/kg Ribavirin. Tumor size was ascertained by measuring tumor diameter, and statistical significance was ascertained by using a paired t test.

[3] = test system: 4E mediated apoptotic rescue; test: 4E mediated apoptotic rescue; type: cell-based; details: FIG. 37
[4] = test system: polysomal loading of eIF4E-sensitive mRNAs; test: polysomal loading of mRNAs, ribosome purification and quantitative RT-PCR; type: cell-based, mouse
Method: (§1) Cell pellets (500 mg) were homogenized in 1 ml of ice cold lysis buffer (20 mM Hepes/10 mM magnesium acetate/100 mM potassium acetate, pH 7.5) supplemented with protease inhibitors (EDTA-free Complete, Roche) and 400 units/ml of SUPERasine (Ambion), and incubated for 30 min on ice with occasional vortexing. Lysates were sedimented at 3,000×g for 10 min at 4° C. to pellet nuclei and cell debris. Supernatants were sedimented at 12,000×g for 20 min at 4° C. to pellet mitochondria. Cleared supernatants were then sedimented at 50,000 rpm (SW 50.1 rotor, Beckman) for 50 min at 4° C. to pellet ribosomes. Ribosomal pellets were resuspended in 200 μl of ice-cold lysis buffer and layered on top of 10-40% sucrose gradient buffered with the lysis buffer, and centrifuged at 50,000 rpm for 80 min at 4° C. RNA content of fractions was ascertained by using the ratio of absorbance at 260:280 nm. […] RNA from each fraction was quantified by spectrophotometry and 40 ng was converted into cDNA by using the Sensiscript reverse transcription kit (Qiagen, Valencia, Calif.). Quantitative real-time PCR was carried out in triplicate by using the QuantiTect SYBR green real-time PCR Kit (Qiagen) in an Opticon thermal cycler (MJ Research, Waltham, Mass.). […] Obtained real-time PCR profiles were analyzed by using Opticon software (MJ Research).

cellular guanosine pools = details: read-out: EC50 depletion of cellular guanosine pools; cited from earlier work
Akt = Akt phosphorylation; type: cell-based; details: FIGS. 35 and 36
liver metastatic disease = details: Jeney et al. 2006; cited from earlier work
[5] = test system: cyclin D1 mRNA transport in NIH 3T3 cells; test: nucleocytoplasmic mRNA transport, fractionation with Northern / quantitative PCR; type: cell-based, mouse
Method: Cells were washed twice with PBS and lysed by slow pipetting in 0.14 M NaCl/10 mM Tris.HCl (pH 8.4)/1.5 mM MgCl2/0.5% (vol/vol) Nonidet P-40/1 mM DTT/100 units/ml RNasin (Promega) at 4° C. Lysed suspensions were centrifuged at 1,000×g for 3 min at 4° C., and the supernatant was saved as the cytoplasmic fraction. Nuclear pellets were resuspended in lysis buffer, and 1/10th volume of 3.3% (wt/vol) sodium deoxycholate and 6.6% (vol/vol) Tween 40 was added under slow vortexing, and incubated at 4° C. for 5 min. Nuclei were sedimented by centrifugation at 1,000×g for 3 min at 4° C., and the supernatant (postnuclear fraction) was added to the cytoplasmic fraction. This yielded intact nuclei, as observed by using light microscopy, with no significant cytoplasmic contamination, as evaluated using tRNA^Lys and β-actin contents. Fractionated cytoplasm was free of nuclear contamination, as indicated by absence of U6 snRNA and Sc35.
RNA from whole cells or nuclear and cytoplasmic fractions was extracted by using Trizol according to manufacturer's instructions (GIBCO). Isolated RNAs were treated with RNase-free DNase I (Promega) and 5-1 μg aliquots were resolved on 1% formaldehydeagarose gel and transferred to a positively charged nylon membrane (Roche, Nutley, N.J.). Membranes were prehybridized in ULTRAhyb buffer (Ambion) and probed with 20 μM cyclin D1 cDNA probe, 5 μM β-actin cDNA probe, 30 μM biotinylated tRNA^Lys antisense oligo probe, and 30 μM biotinylated U6 small nuclear RNA antisense oligo probe. cDNA probes were biotinylated by using BrightStar psoralen-biotin and observed by using CDP Star chemiluminescence according to the manufacturer's instructions (Ambion). Band intensity and film response were quantified by using NIH IMAGE.
as §1, with “Cleared supernatants were then sedimented at 50,000 rpm (SW 50.1 rotor, Beckman) for 50 min at 4° C. to pellet ribosomes. Ribosomal pellets were resuspended in 200 μl of ice-cold lysis buffer and layered on top of 10-40% sucrose gradient buffered with the lysis buffer, and centrifuged at 50,000 rpm for 80 min at 4° C.” left out

SMILES: NC(=O)c1ncn([C@@H]2O[C@H](CO)[C@@H](O)[C@H]2O)n1 [Ribavirin, 1-β-D-ribofuranosyl-1,2,4-triazole-3-carboxamide]
- EC50 [1]: 0.1 to 1 µM
- solubility in anhydrous ethanol ([2]; anhydrous ethanol): sparingly soluble
- solubility in water ([2]; water): freely soluble
- Actin and eIF4E protein levels (FaDu cells): remain unchanged
- protein level of NBS1, Cyclin D1 and ODC (FaDu cells): decreased
- mean tumor volume, fold less than untreated control (FaDu tumors in nude mice; 40 ug/kg orally daily, after 20 days, P=0.023): 6 fold
- mean body concentration (FaDu tumors in nude mice; 40 ug/kg orally each day): ca. 1 uM
- effect on 4E mediated apoptotic rescue [3]: blocks
- decrease of polysomal loading of VEGF and ODC mRNAs [4]: > 1,000 fold
- polysomal loading of cyclin D1 mRNA ([4]; 1 μM): no significant effect
- EC50 (cellular guanosine pools): ~100 µM
- effect on Akt phosphorylation (Akt): inhibits
- effect on liver metastatic disease (liver metastatic disease): reduce liver metastatic disease
- nuclear retention of cyclin D1 mRNA ([5]; 0.1 μM, quantitative real-time PCR): 2 fold
- EC50 ([5]; Mus musculus, NIH3T3, NIH 3T3, read-out: apparent EC50 inhibition of nucleocytoplasmic cyclin D1 mRNA transport): ~1 µM
- concentration of nearly complete nuclear retention of cyclin D1 mRNA ([5]; NIH 3T3): 100 µM
- nucleocytoplasmic transport of B-actin and VEGF mRNAs ([5]; at 100 uM): not affected
